One data set deals with T1, COX-1 (Ovis aries, UniProt P05979).
T1 construct: purchased Cayman chemical, MI, USA
T1 sequence (P05979 25-600): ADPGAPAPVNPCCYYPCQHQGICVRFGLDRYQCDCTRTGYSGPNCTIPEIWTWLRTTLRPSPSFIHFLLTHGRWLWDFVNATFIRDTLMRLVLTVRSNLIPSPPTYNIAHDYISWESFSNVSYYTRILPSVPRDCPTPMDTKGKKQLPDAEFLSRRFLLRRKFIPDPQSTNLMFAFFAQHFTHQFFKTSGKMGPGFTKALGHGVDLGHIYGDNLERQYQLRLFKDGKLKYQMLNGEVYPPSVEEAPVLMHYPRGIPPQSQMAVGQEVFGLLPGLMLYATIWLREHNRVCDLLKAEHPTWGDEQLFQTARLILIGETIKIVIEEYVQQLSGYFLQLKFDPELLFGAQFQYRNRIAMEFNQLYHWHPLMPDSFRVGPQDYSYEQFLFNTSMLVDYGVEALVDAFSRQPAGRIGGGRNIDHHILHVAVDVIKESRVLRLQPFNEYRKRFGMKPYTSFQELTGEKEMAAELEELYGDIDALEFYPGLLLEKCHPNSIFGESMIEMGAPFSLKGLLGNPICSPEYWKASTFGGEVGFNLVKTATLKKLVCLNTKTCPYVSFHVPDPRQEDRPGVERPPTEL
As to the kind of experiment: biochemical. The following applies: ovine COX-1/COX-2 assay kit; mean of two determinations, deviation < 10% of the mean. The procedure: (§1) In-vitro cyclooxygenase (COX) inhibition assays
(§2) The assay was performed using an enzyme chemiluminescent kit (Cayman chemical, MI, USA) according to our previously reported method ([10]).

The next data set addresses T2, COX-2 (Ovis aries, UniProt P79208).
T2 construct: purchased Cayman chemical, MI, USA
T2 sequence (P79208 17-603): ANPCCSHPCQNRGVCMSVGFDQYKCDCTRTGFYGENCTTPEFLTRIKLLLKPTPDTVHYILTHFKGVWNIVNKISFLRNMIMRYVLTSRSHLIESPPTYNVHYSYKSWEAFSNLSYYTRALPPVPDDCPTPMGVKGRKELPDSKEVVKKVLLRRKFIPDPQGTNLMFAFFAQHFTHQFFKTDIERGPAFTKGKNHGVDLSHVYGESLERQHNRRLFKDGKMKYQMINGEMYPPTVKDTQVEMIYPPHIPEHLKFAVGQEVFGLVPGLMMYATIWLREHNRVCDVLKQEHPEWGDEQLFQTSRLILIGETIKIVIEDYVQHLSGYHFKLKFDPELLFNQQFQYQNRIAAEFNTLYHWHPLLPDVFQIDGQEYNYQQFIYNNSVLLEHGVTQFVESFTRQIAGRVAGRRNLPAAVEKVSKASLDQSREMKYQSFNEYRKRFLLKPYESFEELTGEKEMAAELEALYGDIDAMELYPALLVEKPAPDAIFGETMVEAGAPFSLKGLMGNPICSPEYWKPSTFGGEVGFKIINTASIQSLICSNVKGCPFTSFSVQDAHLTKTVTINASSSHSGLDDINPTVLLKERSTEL
As to the kind of experiment: biochemical. The following applies: for COX-2 S.I. (COX-1 IC50/ COX-2 IC50): in-vitro COX-2 selectivity index; for IC50: ovine COX-1/COX-2 assay kit, mean of two determinations, deviation < 10% of the mean. Here is the method: as §1, §2

The IC50 is the midpoint of a concentration-inhibition curve. Consider `CC1(C)CC(=O)C2=C(C1)NC(c1ccc(S(C)(=O)=O)cc1)=CC2c1ccccc1` (stereo not shown) [Compound 9a], for which the IC50 against COX-1 came to 2.6 µM. On COX-2, the “COX-2 S.I. (COX-1 IC50/ COX-2 IC50)” value turned out to be 3.3 and the IC50 stood at 0.8 µM.
In the case of `Cc1ccc(C2C=C(c3ccc(S(C)(=O)=O)cc3)NC3=C2C(=O)CC(C)(C)C3)cc1` (stereo not shown) [Compound 9b], the concentration for half-maximal inhibition (IC50) against COX-1 came to 2.5 µM. For the same compound, on COX-2, the “COX-2 S.I. (COX-1 IC50/ COX-2 IC50)” value worked out at 5.6 and the IC50 amounted to 0.45 µM.
A word on the melting point: it is the temperature, or range, at which the solid turns liquid. With `COc1ccc(C2C=C(c3ccc(S(C)(=O)=O)cc3)NC3=C2C(=O)CC(C)(C)C3)cc1` (stereo not shown) [Compound 9c, 7,8-Dihydro-7,7-dimethyl-4-(4-methoxyphenyl)-2-(4-(methylsulfonyl)phenyl) quinolin-5(1H, 4H, 6H)-one], the melting point lay in the range of 250 to 253 °C. Moreover, the midpoint of inhibition against COX-1, the IC50, lay at 16.6 µM. Half-maximal inhibition on COX-2 (IC50) was put at 0.17 µM.
For the compound `CC1(C)CC(=O)C2=C(C1)NC(c1ccc(S(C)(=O)=O)cc1)=CC2c1ccc(F)cc1` (stereo not shown) [Compound 9d], the melting point was 130 to 133 °C. It took 12.9 µM to reach half-maximal inhibition on COX-1 (IC50). For the same compound, at COX-2, the “COX-2 S.I. (COX-1 IC50/ COX-2 IC50)” value is 43 and inhibition was half-maximal at 0.3 µM (IC50).
In turn, `CC1(C)CC(=O)C2=C(C1)NC(c1ccc(S(C)(=O)=O)cc1)=CC2c1ccc(Cl)cc1` (stereo not shown) [Compound 9e] came in with a melting point of 232 to 236 °C. The IC50 at COX-1 is 18.7 µM. For the same compound, on COX-2, the “COX-2 S.I. (COX-1 IC50/ COX-2 IC50)” value worked out at 3.8 and half-maximal inhibition (IC50) was put at 4.9 µM.
`CC1(C)CC(=O)C2=C(C1)NC(c1ccc(S(C)(=O)=O)cc1)=CC2c1ccc(Br)cc1` (stereo not shown) [Compound 9f] returned a melting point of 237 to 240 °C. The IC50 on COX-1 came out at 20.9 µM. Further, on COX-2, the “COX-2 S.I. (COX-1 IC50/ COX-2 IC50)” value is listed as 2.1 and inhibition was half-maximal at 10.1 µM (IC50).
In turn, `CC1(C)CC(=O)C2=C(C1)NC(c1ccc(S(C)(=O)=O)cc1)=CC2c1ccc([N+](=O)[O-])cc1` (stereo not shown) [Compound 9g] returned an IC50 against COX-1 of 17.6 µM. At COX-2, the “COX-2 S.I. (COX-1 IC50/ COX-2 IC50)” value is on record as 1.1 and half-maximal inhibition (IC50) was put at 16.6 µM.
`CC1(C)CC(=O)C2=C(C1)NC(c1ccccc1)=CC2c1ccc(S(C)(=O)=O)cc1` (stereo not shown) [Compound 9h] came in with a melting point of 205 to 208 °C. The compound also showed an IC50 against COX-1 of 3.6 µM. Moreover, on COX-2, the “COX-2 S.I. (COX-1 IC50/ COX-2 IC50)” value stood at 3.1 and the IC50 came to 1.16 µM.
Take `Cc1ccc(C2=CC(c3ccc(S(C)(=O)=O)cc3)C3=C(CC(C)(C)CC3=O)N2)cc1` (stereo not shown) [Compound 9i, 7,8-Dihydro-7,7-dimethyl-2-(4-methylphenyl)-4-(4-(methylsulfonyl)phenyl) quinolin-5(1H, 4H, 6H)-one]: the melting point was in the range of 223 to 225 °C. It took 2.9 µM to reach half-maximal inhibition against COX-1 (IC50). On COX-2, the “COX-2 S.I. (COX-1 IC50/ COX-2 IC50)” value is reported as 2.2 and the IC50 worked out at 1.3 µM.
The like results for `COc1ccc(C2=CC(c3ccc(S(C)(=O)=O)cc3)C3=C(CC(C)(C)CC3=O)N2)cc1` (stereo not shown) [Compound 9j, 7,8-Dihydro-2-(4-methoxyphenyl)-7,7-dimethyl-4-(4-(methylsulfonyl)phenyl) quinolin-5(1H, 4H, 6H)-one] were, in that order, 226 to 230 °C, 18.7 µM, 62.3 and 0.3 µM.
With `CC1(C)CC(=O)C2=C(C1)NC(c1ccc(F)cc1)=CC2c1ccc(S(C)(=O)=O)cc1` (stereo not shown) [Compound 9k, 2-(4-Fluorophenyl)-7,8-dihydro-7,7-dimethyl-4-(4-(methylsulfonyl)phenyl) quinolin-5 (1H, 4H, 6H)-one], the melting point lay in the range of 226 to 230 °C. The midpoint of inhibition at COX-1, the IC50, lay at 14.2 µM. Also, at COX-2, the “COX-2 S.I. (COX-1 IC50/ COX-2 IC50)” value is recorded as 14.2 and the IC50 was 1 µM.
The like results for `CC1(C)CC(=O)C2=C(C1)NC(c1ccc(Cl)cc1)=CC2c1ccc(S(C)(=O)=O)cc1` (stereo not shown) [Compound 9l, 2-(4-Cholorophenyl)-7,8-dihydro-7,7-dimethyl-4-(4-(methylsulfonyl)phenyl) quinolin-5(1H, 4H, 6H)-one] were, in that order, 226 to 230 °C, 21.6 µM, 3.1 and 6.9 µM.
The like results for `CC1(C)CC(=O)C2=C(C1)NC(c1ccc(Br)cc1)=CC2c1ccc(S(C)(=O)=O)cc1` (stereo not shown) [Compound 9m, 2-(4-Bromophenyl)-7,8-dihydro-7,7-dimethyl-4-(4-(methylsulfonyl)phenyl) quinolin-5 (1H, 4H, 6H)-one] were, in that order, 226 to 230 °C, 17.9 µM, 1.3 and 13.2 µM.
`CC1(C)CC(=O)C2=C(C1)NC(c1ccc([N+](=O)[O-])cc1)=CC2c1ccc(S(C)(=O)=O)cc1` (stereo not shown) [Compound 9n, 7,8-Dihydro-7,7-dimethyl-4-(4-(methylsulfonyl)phenyl)-2-(4-nitrophenyl) quinolin-5 (1H, 4H, 6H)-one] registered a melting point of 226 to 230 °C. Further, at COX-1, half-maximal inhibition (IC50) required 18.6 µM. Also, at COX-2, the “COX-2 S.I. (COX-1 IC50/ COX-2 IC50)” value came to 0.7 and the IC50 worked out at 24.9 µM.

The values are drawn from article PMC3977054, “Design, Synthesis and Biological Evaluation of 5-Oxo-1,4,5,6,7,8 Hexahydroquinoline Derivatives as Selective Cyclooxygenase-2 Inhibitors” (Iranian Journal of Pharmaceutical Research : IJPR, 2014).
